Laboratory results from PMC10119930, “Dual Molecules Targeting 5-HT6 and GABA-A Receptors as a New Approach to Combat Depression Associated with Neuroinflammation” (ACS Chemical Neuroscience, 2023).

How the values were obtained:
BV-2 microglia cells [1] = assay: Anti-inflammatory assessment in LPS-stimulated BV-2 cells (NO, ROS, IL-6, TNF-α); type: cell-based, mouse; settings: 10 μM pretreatment 1 h, then LPS 18 h
Method: Mouse microglial (BV-2) cell line was a generous gift from Prof. Bożena Kamińska-Kaczmarek of the Nencki Institute of Experimental Biology, Polish Academy of Sciences, Warsaw, Poland. The cell culture medium: Dulbecco’s modified with high glucose (DMEM, Glutamx ThermoFisher) and supplemented with 10% inactivated fetal bovine serum heat (ThermoFisher), 100 IU/mL penicillin (Merck) and 100 μg/mL streptomycin (Merck). Cell culture conditions: culture flasks (area 175 cm^2, Nunc), temperature of 37 °C, 5% CO2. For the assessment of the effect of tested compounds on the quantities of reactive oxygen species, nitric oxide, and inflammatory markers, the BV-2 cells were positioned in a 96-well culture plate (5 × 10^4 cells per well, Falcon). In the case of cell membrane damage assay, a 96-well culture plate (2 × 10^4 cells per well, Falcon) was used. The cells were cultured in the incubator (37 °C, 5% CO2) for 24 h prior to the assay. The tested compounds were dissolved in DMSO to achieve the concentration of 10^–2 M. Serial dilutions of the compounds were prepared in PBS and added directly to the medium containing adherent cells. The resulting mixtures were examined for any evidence of precipitation or opalescence before the assay. BV-2 cells were incubated with selected molecules (6, 16 at a concentration of 10 μM) during 1 h. Subsequently, lipopolysaccharide (100 ng/mL) was added and the resulting mixture was incubated for 18 h. Next, the culture supernatant was collected to measure the levels of nitric oxide (NO), reactive oxygen species (ROS), IL-6, and TNF-α according to the procedures described in detail below. All experiments were performed in duplicates, in three independent experiments.
The quantities of NO produced by the cells were determined using DAN reagent (2,3-diaminonaphthalene), rendering the method protocol described by Nussler et al.[48] After incubating at room temperature for 15 min, the fluorescence intensity (EX 360; EM 440 nm) was measured using a microplate reader POLARstar Omega from BMG Labtech. The amounts of NO were then calculated as a percentage of the control (which represents the maximal response of LPS). ROS measurement. The fluorescent dye 2,7-dichlorodihydrofluorescein diacetate (DCFH-DA)[49] was utilized to determine the quantity of ROS released by BV-2 cells. After a 30 min incubation period at 37 °C with 10 μM DCFH-DA, the fluorescence intensity (EX 490; EM 520 nm) was examined using a microplate reader POLARstar Omega from BMG Labtech. The amounts of ROS were then expressed as a percentage of the control (which represents the maximal response of LPS). The IL-6 and TNF-α levels detected in the culture supernatants were quantified using LANCE Ultra TR-FRET detection kit (PerkinElmer), rendering the manufacturer’s procedure. The detection of IL-6 and TNF-α was performed independently in a 384-well plate according to the instructions provided. To each well of the plate, 15 μL of sample was added followed by the addition of 5 μL of premixed antibody solution. After incubating IL-6 for 1 h and TNF-α for 3 h in the absence of light, at 22 °C, the plates were transferred to an EnVision plate reader (PerkinElmer). Measurements were conducted at 320 nm wavelength for excitation, at 615 nm for donor emission, and at 660 nm for acceptor emission. The final data were determined as the ratio of the 660 nm signal to the 615 nm signal. The results represent the levels of each cytokine determined as a percentage of control (considered as maximal cell response to LPS). The GraphPad program was used to conduct statistical analysis, with all outcomes presented as mean values with standard deviation (SD). Differences between groups were assessed using one-way ANOVA, followed by post hoc analysis (Dunnett’s multiple comparison tests). Results were considered statistically significant if the p-value was less than 0.05. […]

BV-2 microglia cells [2] = assay: Evaluation of microglia morphology by fluorescence microscopy (MitoTracker) after LPS; type: cell-based, mouse; settings: 10 μM pretreatment 1 h, LPS 18 h

## Cc1c(OCc2ccccc2)cccc1N1CCN(CCOC(=O)CCCN)CC1.Cl.Cl [Compound 16, 1-(2-((4-Ammoniobutanoyl)oxy)ethyl)-4-(3-(benzyloxy)-2-methylphenyl)piperazin-1-ium Dichloride]
BV-2 microglia cells [1]
  LPS-induced IL-6 production: significantly decreased
  LPS-induced NO production: significantly decreased
  LPS-induced ROS production: significantly decreased
  LPS-induced TNF-α production: significantly decreased
BV-2 microglia cells [2]
  mitochondrial membrane potential / morphology of microglia exposed to LPS: protected the microglia from LPS insult
